target: T1, human GPR119 (Homo sapiens, UniProt Q8TDV5); assay: Measurement of GPR119 signaling by cAMP (LANCE cAMP kit or HTRF) in HEK293 cells transfected with human GPR119; assay type: cell-based; settings: agonist cAMP response in HEK293 cells stably transfected with human GPR119; patent does not say which of the two cAMP formats (LANCE or HTRF)
T1 sequence (Q8TDV5 1-308 limits assumed): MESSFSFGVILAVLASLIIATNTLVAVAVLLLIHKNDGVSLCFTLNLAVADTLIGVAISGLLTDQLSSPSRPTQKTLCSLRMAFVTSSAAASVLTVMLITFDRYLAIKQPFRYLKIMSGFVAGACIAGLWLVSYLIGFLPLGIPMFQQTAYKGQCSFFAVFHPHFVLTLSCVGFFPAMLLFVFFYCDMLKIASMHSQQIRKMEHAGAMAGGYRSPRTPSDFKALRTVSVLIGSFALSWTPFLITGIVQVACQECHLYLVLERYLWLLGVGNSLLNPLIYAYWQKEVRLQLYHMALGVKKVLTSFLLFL
Description: Measurement of GPR119 Signaling Using LANCE 384-Well cAMP Kit
The adenylate cyclase assay was constructed following the LANCE™ cAMP Kit (Perkin Elmer, AD0264) instructions. […] The reaction was stopped by incubating with the supplied detection buffer containing the europium chelate of the Eu-SA/Biotin-cAMP tracer for 3 hours. The assay was performed in duplicate in a 384 well plate for duplicate plates. […] Basal activity was determined using a DMSO control and maximum response was defined as cAMP stimulation produced by an internal agonist control. Standard cAMP concentrations were assayed concurrently for conversion of fluorescence signal to cAMP level. The data was analyzed using 4-parameter curve fit in Microsoft Excel
Measurement of GPR119 Signaling Using a Cyclic AMP (cAMP) Homogenous Time Resolved Fluorescence (HTRF) Assay
Chinese hamster ovary (CHO) cell lines stably transfected with the permissive guanine nucleotide binding protein alpha 15 (Gα15) and murine GPR119 were maintained in DMEM media containing FBS, penicillin-streptomycin, puromycin, and G418 (geneticin). […] Agonist activation of the GPR119 receptor was measured in receptor transfected cells described above, treated with compounds of this invention, using a commercial homogenous time resolved fluorescence (HTRF) kit for measurement of cAMP (CisBio, Bedford, Mass.). The assay was performed in 96-well half-volume plates (murine) or 384-well plates (human) following the manufacturers instructions. Briefly, suspended cells were incubated with a dose titration of test compound at room temperature for 60 min, lysed, and incubated with HTRF reagents for an additional 60 min. The plate was read using an Envision multilabel reader (Perkin Elmer) adjusted to read time resolved fluorescence and the cAMP concentrations were extrapolated from a cAMP calibration curve. […] The concentration of test compound required to stimulate a half-maximal response (EC50), and efficacy as compared to an internal agonist control, was determined from a sigmoidal 4-parameter curve fit of the resulting plot of normalized activity versus compound concentration.

| SMILES | EC50 [nM] |
| --- | --- |
| COCc1cnc(N2CCC([C@H]3CC3CCOc3cc(F)c(CCO)c(F)c3)CC2)nc1 (stereo in doubt) [Example 240, 2-{2,6-Difluoro-4-[2-((1R,2R)-2-{1-[5-(methoxymethyl)pyrimidin-2-yl]piperidin-4-yl}cyclopropyl)ethoxy]phenyl}ethanol] | 7.2 |
| O=C(Cc1ccc(OCC[C@@H]2C[C@@H]2C2CCN(c3ncc(Cl)cn3)CC2)cc1)N1CCC1 [Example 1, 1-(azetidin-1-yl)-2-[4-(2-{(1S,2R)-2-[1-(5-chloropyrimidin-2-yl)piperidin-4-yl]cyclopropyl}ethoxy)phenyl]ethanone] | 0.79 |
| O=C(Cc1ccc(OCC[C@@H]2C[C@@H]2C2CCN(c3ncc(Cl)cn3)CC2)cc1)NC1CC1 [Example 2] | 1.8 |
| O=C(Cc1ccc(OCC[C@@H]2C[C@@H]2C2CCN(c3ncc(Cl)cn3)CC2)cc1)N1CCCC1 [Example 3] | 2.1 |
| O=C(Cc1ccc(OCC[C@@H]2C[C@@H]2C2CCN(c3ncc(Cl)cn3)CC2)cc1)N1CCOCC1 [Example 5] | 3.6 |
| COCc1cnc(N2CCC([C@H]3C[C@H]3CCOc3ccc(CC(=O)N4CC(O)C4)cc3)CC2)nc1 [Example 7, 1-(3-hydroxyazetidin-1-yl)-2-(4-{2-[(1S,2R)-2-{1-[5-(methoxymethyl)pyrimidin-2-yl]piperidin-4-yl}cyclopropyl]ethoxy}phenyl)ethanone] | 7.7 |
| COCc1cnc(N2CCC([C@H]3C[C@H]3CCOc3ccc(CC(=O)N4CC(OC)C4)cc3)CC2)nc1 [Example 8] | 2.9 |
| COCc1cnc(N2CCC([C@H]3C[C@H]3CCOc3ccc(CC(=O)N4CCC4)cc3)CC2)nc1 [Example 9] | 3.8 |
| COCc1cnc(N2CCC([C@H]3C[C@H]3CCOc3ccc(CC(=O)N4CCOCC4)cc3)CC2)nc1 [Example 10] | 8.3 |
| COCc1cnc(N2CCC([C@H]3C[C@H]3CCOc3ccc(CC(=O)N4CC(F)C4)cc3)CC2)nc1 [Example 11] | 2.9 |
| COCc1cnc(N2CCC([C@H]3C[C@H]3CCOc3ccc(CC(=O)N4CC(F)(F)C4)cc3)CC2)nc1 [Example 12] | 3 |
| COCc1cnc(N2CCC([C@H]3C[C@H]3CCOc3ccc(CC(=O)N4CC(C)(C)C4)cc3)CC2)nc1 [Example 13] | 5.2 |
| COCc1cnc(N2CCC([C@H]3C[C@H]3CCOc3ccc(CC(=O)N4CC(C)C4)cc3)CC2)nc1 [Example 14] | 5.5 |
| Cc1cc(OCC[C@@H]2C[C@@H]2C2CCN(c3ncc(Cl)cn3)CC2)ccc1CC(=O)N(C)C [Example 18, 2-[4-(2-{(1S,2R)-2-[1-(5-chloropyrimidin-2-yl)piperidin-4-yl]cyclopropyl}ethoxy)-2-methylphenyl]-N,N-dimethylacetamide] | 1.7 |
| CCc1cnc(N2CCC([C@H]3C[C@H]3CCOc3ccc(CC(=O)N(C)C)c(C)c3)CC2)nc1 [Example 19] | 2.3 |
| COc1cc(OCC[C@@H]2C[C@@H]2C2CCN(c3ncc(Cl)cn3)CC2)ccc1CC(=O)N1CCC1 [Example 26, 1-(azetidin-1-yl)-2-[4-(2-{(1S,2R)-2-[1-(5-chloropyrimidin-2-yl)piperidin-4-yl]cyclopropyl}ethoxy)-2-methoxyphenyl]ethanone] | 7.1 |
| CCc1cnc(N2CCC([C@H]3C[C@H]3CCOc3ccc(CC(=O)N4CCC4)c(OC)c3)CC2)nc1 [Example 27] | 3.2 |
| COCc1cnc(N2CCC([C@H]3C[C@H]3CCOc3ccc(CC(=O)N(C)C)c(Cl)c3)CC2)nc1 [Example 28, 2-(2-chloro-4-{2-[(1S,2R)-2-{1-[5-(methoxymethyl)pyrimidin-2-yl]piperidin-4-yl}cyclopropyl]ethoxy}phenyl)-N,N-dimethylacetamide] | 2.3 |
| COCc1cnc(N2CCC([C@H]3C[C@H]3CCOc3ccc(CC(=O)N4CC(O)C4)c(Cl)c3)CC2)nc1 [Example 29] | 2.4 |
| COc1cnc(N2CCC([C@H]3C[C@H]3CCOc3ccc(CC(=O)N4CC(O)C4)c(F)c3)CC2)nc1 [Example 33, 2-[2-fluoro-4-(2-{(1S,2R)-2-[1-(5-methoxypyrimidin-2-yl)piperidin-4-yl]cyclopropyl}ethoxy)phenyl]-1-(3-hydroxyazetidin-1-yl)ethanone] | 2.1 |
| COc1cnc(N2CCC([C@H]3C[C@H]3CCOc3ccc(CC(=O)N4CC(C)(O)C4)c(F)c3)CC2)nc1 [Example 35] | 2.2 |
| COc1cnc(N2CCC([C@H]3C[C@H]3CCOc3ccc(CC(=O)N(C)C)c(F)c3)CC2)nc1 [Example 36] | 1.7 |

Further molecules by falling EC50, results first:

| EC50 [nM] | SMILES |
| --- | --- |
| 1.5 | COCc1cnc(N2CCC([C@H]3C[C@H]3CCOc3ccc(CC(=O)N4CC(C)(O)C4)c(Cl)c3)CC2)nc1 [Example 31] |
| 1.4 | COCc1cnc(N2CCC([C@H]3C[C@H]3CCOc3ccc(CC(=O)N4CCC4)c(C#N)c3)CC2)nc1 [Example 25] |
| 1.1 | CCc1cnc(N2CCC([C@H]3C[C@H]3CCOc3ccc(CC(=O)N4CCC4)c(C)c3)CC2)nc1 [Example 16] |
| 1.1 | COCc1cnc(N2CCC([C@H]3C[C@H]3CCOc3ccc(CC(=O)N4CCOCC4)c(Cl)c3)CC2)nc1 [Example 32] |
| 0.98 | COc1cnc(N2CCC([C@H]3C[C@H]3CCOc3ccc(CC(=O)N4CC(OC)C4)c(F)c3)CC2)nc1 [Example 34] |
| 0.94 | COc1cnc(N2CCC([C@H]3C[C@H]3CCOc3ccc(CC(=O)N4CCC4)c(F)c3)CC2)nc1 [Example 37] |
| 0.89 | O=C(Cc1ccc(OCC[C@@H]2C[C@@H]2C2CCN(c3ncc(Cl)cn3)CC2)cc1)N1CC(F)C1 [Example 6] |
| 0.86 | COCc1cnc(N2CCC([C@H]3C[C@H]3CCOc3ccc(CC(=O)N4CC(OC)C4)c(Cl)c3)CC2)nc1 [Example 30] |
| 0.83 | COCc1cnc(N2CCC([C@H]3C[C@H]3CCOc3ccc(CC(=O)N4CCC4)c(Cl)c3)CC2)nc1 [Example 22] |
| 0.73 | Cc1cc(OCC[C@@H]2C[C@@H]2C2CCN(c3ncc(Cl)cn3)CC2)ccc1CC(=O)N1CCC1 [Example 15, 1-(azetidin-1-yl)-2-[4-(2-{(1S,2R)-2-[1-(5-chloropyrimidin-2-yl)piperidin-4-yl]cyclopropyl}ethoxy)-2-methylphenyl]ethanone] |
| 0.4 | CCc1cnc(N2CCC([C@H]3C[C@H]3CCOc3ccc(CC(=O)N4CCC4)c(C#N)c3)CC2)nc1 [Example 24] |
| 0.32 | O=C(Cc1ccc(OCC[C@@H]2C[C@@H]2C2CCN(c3ncc(Cl)cn3)CC2)cc1Cl)N1CCC1 [Example 20, 1-(azetidin-1-yl)-2-[2-chloro-4-(2-{(1S,2R)-2-[1-(5-chloropyrimidin-2-yl)piperidin-4-yl]cyclopropyl}ethoxy)phenyl]ethanone] |
| 0.32 | N#Cc1cc(OCC[C@@H]2C[C@@H]2C2CCN(c3ncc(Cl)cn3)CC2)ccc1CC(=O)N1CCC1 [Example 23, 2-[2-(azetidin-1-yl)-2-oxoethyl]-5-(2-{(1S,2R)-2-[1-(5-chloropyrimidin-2-yl)piperidin-4-yl]cyclopropyl}ethoxy)benzonitrile] |
| 0.19 | CCc1cnc(N2CCC([C@H]3C[C@H]3CCOc3ccc(CC(=O)N4CCC4)c(Cl)c3)CC2)nc1 [Example 21] |
